The assay has as its target T1, KRAS G12C (GMPPNP-loaded) and cRAF Ras-binding domain (Homo sapiens, UniProt P01116, C118S/C51S/C80L/G12C).
T1 construct: truncated version comprising amino acids 1-169
Kind of assay: Inhibition of KRAS G12C and cRAF binding (AlphaScreen). The settings on record: KRAS G12C preloaded with GTP analogue GMPPNP, 2 hours preincubation. The method in brief:
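Compounds (10-point, 1:3 from 50 μM; 2% DMSO) were incubated 2 h at room temperature with 0.5 nM GMPPNP-preloaded truncated Cys-light KRAS G12C, then 60-90 min with 0.75 nM GST-RBD of cRAF and AlphaScreen beads. Signal at 570 nm gave IC50 by 4-parameter regression, and a biotin-AviTag-GST counter assay excluded interference with the AlphaScreen readout.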
(In general: In Alpha technology, singlet oxygen from a donor bead excites a nearby acceptor bead.)
T1 sequence (P01116 1-169 isoform P01116-2 G12C/C51S/C80L/C118S): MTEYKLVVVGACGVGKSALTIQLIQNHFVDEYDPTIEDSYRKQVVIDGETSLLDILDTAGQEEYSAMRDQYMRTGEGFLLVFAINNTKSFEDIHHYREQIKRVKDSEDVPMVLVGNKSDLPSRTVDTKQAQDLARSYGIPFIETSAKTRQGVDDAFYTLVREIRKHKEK
On to `C=CC(=O)N1CC[C@@H](N(C)c2nc(OC[C@@]34CCCN3C[C@H](F)C4)nc3c(F)c(-c4nc(N)ccc4F)ncc23)C1` [Example 96, 1-((R)-3-((7-(6-amino-3-fluoropyridin-2-yl)-8-fluoro-2-(((2R,7aS)-2-fluorotetrahydro-1H-pyrrolizin-7a(5H)-yl)methoxy)pyrido[4,3-d]pyrimidin-4-yl)(methyl)amino)pyrrolidin-1-yl)prop-2-en-1-one], for which the IC50 is at least 500 nM.
The value for `Cc1cc(N)nc(-c2ncc3c(N(C)CC4CN(C(=O)/C=C/c5nc(C(C)(C)O)no5)C4)nc(OC[C@@]45CCCN4C[C@H](F)C5)nc3c2F)c1C(F)(F)F` [Example 97] was 10 to 100 nM; that for `C=CC(=O)N1CC[C@@H](N(C)c2nc(OCC34CCCN3CCC4)nc3c2CC(C)C(c2nc(N)cc(C)c2C(F)(F)F)C3)C1` (some centres unmarked) [Example 98] was 100 to 500 nM; that for `CN1CC[C@@H]1/C=C/C(=O)N1CC[C@@H](N(C)c2nc(OC[C@@]34CCCN3C[C@H](F)C4)nc3c(F)c(-c4nc(N)cc5cccc(Cl)c45)ncc23)C1` [Example 99] was under 10 nM.
The value for `Cc1cc(N)nc(-c2ncc3c(N(C)[C@@H]4CCN(C(=O)C#CCN5CCOCC5)C4)nc(OC[C@@]45CCCN4C[C@H](F)C5)nc3c2F)c1C(F)(F)F` [Example 101] was 10 to 100 nM; that for `CN(C)CC#CC(=O)N1CC[C@@H](N(C)c2nc(OC[C@@]34CCCN3C[C@H](F)C4)nc3c(F)c(-c4nc(N)cc5cccc(F)c45)ncc23)C1` [Example 106] was under 10 nM; that for `C=CC(=O)N1CC[C@@H](N(C)c2nc(OC[C@@]34CCCN3C[C@H](F)C4)nc3c(F)c(-c4cc(N)nc(C)c4C(F)(F)F)ncc23)C1` [Example 107, 1-((R)-3-((7-(6-amino-2-methyl-3-(trifluoromethyl)pyridin-4-yl)-8-fluoro-2-(((2R,7aS)-2-fluorotetrahydro-1H-pyrrolizin-7a(5H)-yl)methoxy)pyrido[4,3-d]pyrimidin-4-yl)(methyl)amino)pyrrolidin-1-yl)prop-2-en-1-one] was 10 to 100 nM.
The value for `CN1CC[C@H]1/C=C/C(=O)N1CC[C@@H](N(C)c2nc(OC[C@@]34CCCN3C[C@H](F)C4)nc3c(F)c(-c4nc(N)cc5cccc(Cl)c45)ncc23)C1` [Example 108] was 10 to 100 nM; that for `C=CC(=O)N1CC(CN(C)c2nc(OCC34CCCN3CCC4)nc3c2C[C@H](C)[C@@H](c2nc(N)cc(C)c2C(F)(F)F)C3)C1` [Example 109] was at least 500 nM.
For `CN(C)CC#CC(=O)N1CC(CN(C)c2nc(OC[C@@]34CCCN3C[C@H](F)C4)nc3c(F)c(-c4nc(N)cc5cccc(Cl)c45)ncc23)C1` [Example 110], the half-inhibitory concentration (IC50) is 10 to 100 nM.
To `C=CC(=O)N1CC[C@@H](N(C)c2nc(OC[C@@]34CCCN3C[C@H](F)C4)nc3c2CCN(c2nc(N)cc(C)c2C(F)(F)F)C3)C1` [Example 111, 1-((R)-3-((7-(6-amino-4-methyl-3-(trifluoromethyl)pyridin-2-yl)-2-(((2R,7aS)-2-fluorotetrahydro-1H-pyrrolizin-7a(5H)-yl)methoxy)-5,6,7,8-tetrahydropyrido[3,4-d]pyrimidin-4-yl)(methyl)amino)pyrrolidin-1-yl)prop-2-en-1-one] belongs at least 500 nM; to `CN(CC1CN(C(=O)/C=C/c2nc(C(C)(F)F)no2)C1)c1nc(OC[C@@]23CCCN2C[C@H](F)C3)nc2c(F)c(-c3nc(N)cc4cccc(F)c34)ncc12` [Example 113], under 10 nM.
To `Cc1cc(N)nc(-c2ncc3c(N(C)CC4CN(C(=O)C#CCN5CCOCC5)C4)nc(OC[C@@]45CCCN4C[C@H](F)C5)nc3c2F)c1C(F)(F)F` [Example 114] belongs 10 to 100 nM; to `Cc1noc(/C=C/C(=O)N2CC[C@@H](N(C)c3nc(OC[C@@]45CCCN4C[C@H](F)C5)nc4c3CC(C)C(c3nc(N)cc(C)c3C(F)(F)F)C4)C2)n1` (some centres unmarked) [Example 115], under 10 nM; to `CN(c1nc(OC[C@@]23CCCN2C[C@H](F)C3)nc2c(F)c(-c3nc(N)cc4cccc(Cl)c34)ncc12)[C@@H]1CCN(C(=O)/C=C/CN2CCOCC2)C1` [Example 116], 100 to 500 nM.
As to `CC(C)c1noc(/C=C/C(=O)N2CC(CN(C)c3nc(OC[C@@]45CCCN4C[C@H](F)C5)nc4c(F)c(-c5nc(N)cc6cccc(Cl)c56)ncc34)C2)n1` [Example 118], the IC50 lay within 100 to 500 nM.
To `Cc1cc(N)nc(-c2ncc3c(N(C)[C@@H]4CCN(C(=O)/C=C/CN5CCOCC5)C4)nc(OC[C@@]45CCCN4C[C@H](F)C5)nc3c2F)c1C(F)(F)F` [Example 120] belongs 100 to 500 nM.
`Cc1noc(/C=C/C(=O)N2CC[C@@H](N(C)c3nc(OCC45CCCN4CCC5)nc4c3C[C@@H](C)[C@H](c3nc(N)cc(C)c3C(F)(F)F)C4)C2)n1` [Example 124] came in with a 50% inhibitory concentration (IC50) of 100 to 500 nM.
To `C=CC(=O)N1CC[C@@H](N(C)c2nc(OC[C@@]34CCCN3C[C@H](F)C4)nc3c(F)c(-c4nc(N)ccc4C)ncc23)C1` [Example 125, 1-((R)-3-((7-(6-amino-3-methylpyridin-2-yl)-8-fluoro-2-(((2R,7aS)-2-fluorotetrahydro-1H-pyrrolizin-7a(5H)-yl)methoxy)pyrido[4,3-d]pyrimidin-4-yl)(methyl)amino)pyrrolidin-1-yl)prop-2-en-1-one] belongs at least 500 nM; to `C=CC(=O)N1CC(CN(C)c2nc(OC[C@@]34CCCN3C[C@H](F)C4)nc3c(F)c(-c4nc(N)cc5cccc(F)c45)ncc23)C1` [Example 128, 1-(3-(((7-(3-amino-8-fluoroisoquinolin-1-yl)-8-fluoro-2-(((2R,7aS)-2-fluorotetrahydro-1H-pyrrolizin-7a(5H)-yl)methoxy)pyrido[4,3-d]pyrimidin-4-yl)(methyl)amino)methyl)azetidin-1-yl)prop-2-en-1-one], at least 500 nM; to `Cc1cc(N)nc(-c2ncc3c(N(C)CC4CN(C(=O)/C=C/CN5CCOCC5)C4)nc(OC[C@@]45CCCN4C[C@H](F)C5)nc3c2F)c1C(F)(F)F` [Example 129], 100 to 500 nM.
To `C=CC(=O)N1CC(CN(C)c2nc(OCC34CCCN3CCC4)nc3c(F)c(-c4nc(N)cc(C)c4C4CC4)ncc23)C1` [Example 131, 1-(3-(((7-(6-amino-3-cyclopropyl-4-methylpyridin-2-yl)-8-fluoro-2-((tetrahydro-1H-pyrrolizin-7a(5H)-yl)methoxy)pyrido[4,3-d]pyrimidin-4-yl)(methyl)amino)methyl)azetidin-1-yl)prop-2-en-1-one] belongs at least 500 nM.
To `C=CC(=O)N1CC(CN(C)c2nc(OC[C@@]34CCCN3C[C@H](F)C4)nc3c2C[C@@H](C)[C@H](c2nc(N)cc(C)c2C(F)(F)F)C3)C1` [Example 132] belongs 100 to 500 nM.
On to `C=CC(=O)N1CC(CN(C)c2nc(OC[C@@]34CCCN3C[C@H](F)C4)nc3c(F)c(-c4nc(N)cc(C)c4C4CC4)ncc23)C1` [Example 133, 1-(3-(((7-(6-amino-3-cyclopropyl-4-methylpyridin-2-yl)-8-fluoro-2-(((2R,7aS)-2-fluorotetrahydro-1H-pyrrolizin-7a(5H)-yl)methoxy)pyrido[4,3-d]pyrimidin-4-yl)(methyl)amino)methyl)azetidin-1-yl)prop-2-en-1-one], for which the concentration for half-maximal inhibition (IC50) is at least 500 nM.
The value for `CN1CC[C@H]1/C=C/C(=O)N1CC[C@@H](N(C)c2nc(OC[C@@]34CCCN3C[C@H](F)C4)nc3c(F)c(-c4nc(N)cc5cccc(F)c45)ncc23)C1` [Example 135] was 100 to 500 nM; that for `Cc1noc(/C=C/C(=O)N2CC[C@@H](N(C)c3nc(OC[C@@]45CCCN4C[C@H](F)C5)nc4c3C[C@@H](C)[C@H](c3nc(N)cc(C)c3C(F)(F)F)C4)C2)n1` [Example 136] was under 10 nM; that for `C=CC(=O)N1CC(CN(C)c2nc(OC[C@@]34CCCN3C[C@H](F)C4)nc3c2C[C@H](C)[C@@H](c2nc(N)cc(C)c2C(F)(F)F)C3)C1` [Example 137, 1-(3-((((6S,7S)-7-(6-amino-4-methyl-3-(trifluoromethyl)pyridin-2-yl)-2-(((2R,7aS)-2-fluorotetrahydro-1H-pyrrolizin-7a(5H)-yl)methoxy)-6-methyl-5,6,7,8-tetrahydroquinazolin-4-yl)(methyl)amino)methyl)azetidin-1-yl)prop-2-en-1-one] was at least 500 nM.
The value for `C=CC(=O)N1CC[C@@H](N(C)c2nc(OC[C@@]34CCCN3C[C@H](F)C4)nc3c2CC(C)C(c2nc(N)cc(C)c2C(F)(F)F)C3)C1` (some centres unmarked) [Example 138] was 100 to 500 nM; that for `Cc1cc(N)nc(-c2ncc3c(N(C)[C@@H]4CCN(C(=O)/C=C/c5nc(C(C)(C)O)no5)C4)nc(OC[C@@]45CCCN4C[C@H](F)C5)nc3c2F)c1C(F)(F)F` [Example 139] was under 10 nM.
To `Cc1nccc(/C=C/C(=O)N2CC(CN(C)c3nc(OC[C@@]45CCCN4C[C@H](F)C5)nc4c(F)c(-c5nc(N)cc6cccc(F)c56)ncc34)C2)n1` [Example 141, (E)-1-(3-(((7-(3-amino-8-fluoroisoquinolin-1-yl)-8-fluoro-2-(((2R,7aS)-2-fluorotetrahydro-1H-pyrrolizin-7a(5H)-yl)methoxy)pyrido[4,3-d]pyrimidin-4-yl)(methyl)amino)methyl)azetidin-1-yl)-3-(2-methylpyrimidin-4-yl)prop-2-en-1-one] belongs 10 to 100 nM.
`CN(c1nc(OC[C@@]23CCCN2C[C@H](F)C3)nc2c(F)c(-c3nc(N)cc4cccc(F)c34)ncc12)[C@@H]1CCN(C(=O)/C=C/c2nc(C(C)(C)O)no2)C1` [Example 142] showed a 50% inhibitory concentration (IC50) of under 10 nM.
The value for `Cc1noc(/C=C/C(=O)N2CC[C@@H](N(C)c3nc(OCC45CCCN4CCC5)nc4c3CC(C)C(c3nc(N)cc(C)c3C(F)(F)F)C4)C2)n1` (some centres unmarked) [Example 143] was under 10 nM.

What is called IC50 is the midpoint of a concentration-inhibition curve. A high value points to weaker potency.

The record behind these values is patent US20260256789A1, “METHODS FOR TREATMENT OF CANCER” (Frontier Medicines Corporation, priority 2022, published 2026).
